Results taken from ChEMBL document CHEMBL4630904, “Data for DCP probe BI 207127” (2021).
Activity calls are given as the source filed them. The rule behind the calls is not given here.

Experiments:
[1] = target: Beta-2 adrenergic receptor (Homo sapiens) (UniProt P07550); assay: BETA2/HUM Eurofins SafetyScreen44 (BI); details: filed as antagonist, Compound concentration 10.0 uM
[2] = target: Glucocorticoid receptor (Homo sapiens) (UniProt P04150); assay: GCORTICOID/H Eurofins SafetyScreen44 (BI); details: Compound concentration 10.0 uM
[3] = target: Alpha-2A adrenergic receptor (Homo sapiens) (UniProt P08913); assay: ALPHA2A/HU Eurofins SafetyScreen44 (BI); details: Compound concentration 10.0 uM
[4] = target: Muscarinic acetylcholine receptor M3 (Homo sapiens) (UniProt P20309); assay: M3/H Eurofins SafetyScreen44 (BI); details: Compound concentration 10.0 uM
[5] = target: Cholecystokinin receptor type A (Homo sapiens) (UniProt P32238); assay: CCKA/H Eurofins SafetyScreen44 (BI); details: Compound concentration 10.0 uM
[6] = target: Voltage-dependent L-type calcium channel subunit alpha-1C (dihydropyridine site) (Rattus norvegicus, UniProt P22002); assay: CA+/DHPSI/R Eurofins SafetyScreen44 (BI); parameters: mode of action inhibitor; details: rat brain, probe [3H](+)PN200-110, compound concentration 10 uM, read-out: % Ctrl
[7] = target: Sodium-dependent dopamine transporter (Homo sapiens) (UniProt Q01959); assay: DATRANS/HUM Eurofins SafetyScreen44 (BI); details: Compound concentration 10.0 uM
[8] = target: Vasopressin V1a receptor (Homo sapiens) (UniProt P37288); assay: V1A/HUM Eurofins SafetyScreen44 (BI); details: Compound concentration 10.0 uM
[9] = target: D(1A) dopamine receptor (Homo sapiens) (UniProt P21728); assay: D1/H Eurofins SafetyScreen44 (BI); details: filed as antagonist, Compound concentration 10.0 uM
[10] = target: Kappa-type opioid receptor (Homo sapiens) (UniProt P41145); assay: KAPPA(KOP)_HU Eurofins SafetyScreen44 (BI); details: Compound concentration 10.0 uM
[11] = target: cGMP-inhibited 3',5'-cyclic phosphodiesterase 3A (Homo sapiens) (UniProt Q14432); assay: PDE3A Eurofins SafetyScreen44 (BI); details: Compound concentration 10.0 uM
[12] = target: Sodium-dependent noradrenaline transporter (Homo sapiens) (UniProt P23975); assay: NEUP/H Eurofins SafetyScreen44 (BI); details: Compound concentration 10.0 uM
[13] = target: Cannabinoid receptor 1 (Homo sapiens) (UniProt P21554); assay: CB1(HU)_AGON Eurofins SafetyScreen44 (BI); details: filed as agonist; Compound concentration 10.0 uM
[14] = target: Delta-type opioid receptor (Homo sapiens) (UniProt P41143); assay: DELTA2/H Eurofins SafetyScreen44 (BI); details: Compound concentration 10.0 uM
[15] = target: Gamma-aminobutyric acid receptor subunit alpha-1 (Rattus norvegicus) (UniProt P62813); assay: BZD/CENTR/R Eurofins SafetyScreen44 (BI); details: Compound concentration 10.0 uM
[16] = target: 5-hydroxytryptamine receptor 2B (Homo sapiens) (UniProt P41595); assay: 5HT2B/H AG Eurofins SafetyScreen44 (BI); details: filed as agonist, Compound concentration 10.0 uM
[17] = target: Sodium channel regulatory subunit beta-1 (Rattus norvegicus) (UniProt Q00954); assay: NA+/SITE2/R Eurofins SafetyScreen44 (BI); details: Compound concentration 10.0 uM
[18] = target: 5-hydroxytryptamine receptor 3A (Homo sapiens) (UniProt P46098); assay: 5HT3/H Eurofins SafetyScreen44 (BI); details: Compound concentration 10.0 uM
[19] = target: MAO-A (amine oxidase [flavin-containing] A) (Rattus norvegicus, UniProt P21396); assay: MAO-A_ANTAG Eurofins SafetyScreen44 (BI); parameters: mode of action antagonist; scale not given: the % may be the effect or the level left; details: compound concentration 10 uM, read-out: % Ctrl
[20] = target: Muscarinic acetylcholine receptor M2 (Homo sapiens) (UniProt P08172); assay: M2/H Eurofins SafetyScreen44 (BI); details: filed as antagonist, Compound concentration 10.0 uM
[21] = target: Beta-1 adrenergic receptor (Homo sapiens) (UniProt P08588); assay: BETA1/HUM Eurofins SafetyScreen44 (BI); details: Compound concentration 10.0 uM
[22] = target: Histamine H1 receptor (Homo sapiens) (UniProt P35367); assay: H1/PYRIL/HS Eurofins SafetyScreen44 (BI); details: Compound concentration 10.0 uM
[23] = target: Endothelin-1 receptor (Homo sapiens) (UniProt P25101); assay: ETA/H Eurofins SafetyScreen44 (BI); details: Compound concentration 10.0 uM
[24] = target: Tyrosine-protein kinase Lck (Homo sapiens) (UniProt P06239); assay: LCK_CE Eurofins SafetyScreen44 (BI); details: Compound concentration 10.0 uM
[25] = target: Prostaglandin G/H synthase 1 (Homo sapiens) (UniProt P23219); assay: COX-1 Eurofins SafetyScreen44 (BI); details: Compound concentration 10.0 uM
[26] = target: 5-hydroxytryptamine receptor 1B (Homo sapiens) (UniProt P28222); assay: 5HT1B(H) Eurofins SafetyScreen44 (BI); details: filed as antagonist, Compound concentration 10.0 uM
[27] = target: Glutamate receptor ionotropic, NMDA 2A (Rattus norvegicus) (UniProt Q00959); assay: NMDA/R Eurofins SafetyScreen44 (BI); details: Compound concentration 10.0 uM
[28] = target: Mu-type opioid receptor (Homo sapiens) (UniProt P35372); assay: MU/H Eurofins SafetyScreen44 (BI); details: Compound concentration 10.0 uM
[29] = target: 3',5'-cyclic-AMP phosphodiesterase 4D (Homo sapiens) (UniProt Q08499); assay: PDE4D2 Eurofins SafetyScreen44 (BI); details: Compound concentration 10.0 uM
[30] = target: Alpha-1A adrenergic receptor (Homo sapiens) (UniProt P35348); assay: ALPHA1AH_ANTAG Eurofins SafetyScreen44 (BI); details: filed as antagonist, Compound concentration 10.0 uM
[31] = target: Prostaglandin G/H synthase 2 (Homo sapiens) (UniProt P35354); assay: COX-2 Eurofins SafetyScreen44 (BI); details: Compound concentration 10.0 uM
[32] = target: Potassium voltage-gated channel subfamily V member 1 (Rattus norvegicus) (UniProt P97557); assay: K+/VOLT/RA Eurofins SafetyScreen44 (BI); details: Compound concentration 10.0 uM
[33] = target: Neuronal acetylcholine receptor; alpha4/beta2 (Homo sapiens) (UniProt P17787+P43681); assay: N_NEURO_A4B2 Eurofins SafetyScreen44 (BI); type: protein-complex assay; details: filed as agonist, Compound concentration 10.0 uM
[34] = target: Adenosine receptor A2a (Homo sapiens) (UniProt P29274); assay: A2A/H Eurofins SafetyScreen44 (BI); details: filed as antagonist, Compound concentration 10.0 uM
[35] = target: Cannabinoid receptor 2 (Homo sapiens) (UniProt P34972); assay: CB2/PERIPH/H Eurofins SafetyScreen44 (BI); details: Compound concentration 10.0 uM
[36] = target: 5-hydroxytryptamine receptor 2A (Homo sapiens) (UniProt P28223); assay: 5HT2AH_AGON Eurofins SafetyScreen44 (BI); details: filed as agonist, Compound concentration 10.0 uM
[37] = target: 5-hydroxytryptamine receptor 1A (Homo sapiens) (UniProt P08908); assay: 5HT1A/H Eurofins SafetyScreen44 (BI); details: Compound concentration 10.0 uM
[38] = target: Muscarinic acetylcholine receptor M1 (Homo sapiens) (UniProt P11229); assay: M1/H Eurofins SafetyScreen44 (BI); details: Compound concentration 10.0 uM
[39] = target: Angiotensin-converting enzyme (Homo sapiens) (UniProt P12821); assay: ACE(HU_AMTCH400) Eurofins SafetyScreen44 (BI); details: Compound concentration 10.0 uM
hERG (KCNH2) = hERG (KCNH2) (Homo sapiens, UniProt Q12809); assay: HERG_DOFETILIDE Eurofins SafetyScreen44 (BI); parameters: mode of action inhibitor; details: probe [3H] Dofetilide, compound concentration 10 uM, read-out: % Ctrl
[40] = target: D(2) dopamine receptor (Homo sapiens) (UniProt P14416); assay: D2SH_AGON Eurofins SafetyScreen44 (BI); details: filed as agonist, Compound concentration 10.0 uM
[41] = target: Histamine H2 receptor (Homo sapiens) (UniProt P25021); assay: H2/APT/HS Eurofins SafetyScreen44 (BI); details: filed as antagonist, Compound concentration 10.0 uM
[42] = target: RNA-directed RNA polymerase (Hepacivirus hominis, UniProt O39930); assay: Enzymatic assay with HCV NS5B polymerase D21
[43] = target: Androgen receptor (Homo sapiens) (UniProt P10275); assay: ANDROGEN/H Eurofins SafetyScreen44 (BI); details: Compound concentration 10.0 uM
[44] = target: Sodium-dependent serotonin transporter (Homo sapiens) (UniProt P31645); assay: SLC6A4/H Eurofins SafetyScreen44 (BI); details: filed as antagonist, Compound concentration 10.0 uM

Sequence of RNA-directed RNA polymerase (O39930 whole entry): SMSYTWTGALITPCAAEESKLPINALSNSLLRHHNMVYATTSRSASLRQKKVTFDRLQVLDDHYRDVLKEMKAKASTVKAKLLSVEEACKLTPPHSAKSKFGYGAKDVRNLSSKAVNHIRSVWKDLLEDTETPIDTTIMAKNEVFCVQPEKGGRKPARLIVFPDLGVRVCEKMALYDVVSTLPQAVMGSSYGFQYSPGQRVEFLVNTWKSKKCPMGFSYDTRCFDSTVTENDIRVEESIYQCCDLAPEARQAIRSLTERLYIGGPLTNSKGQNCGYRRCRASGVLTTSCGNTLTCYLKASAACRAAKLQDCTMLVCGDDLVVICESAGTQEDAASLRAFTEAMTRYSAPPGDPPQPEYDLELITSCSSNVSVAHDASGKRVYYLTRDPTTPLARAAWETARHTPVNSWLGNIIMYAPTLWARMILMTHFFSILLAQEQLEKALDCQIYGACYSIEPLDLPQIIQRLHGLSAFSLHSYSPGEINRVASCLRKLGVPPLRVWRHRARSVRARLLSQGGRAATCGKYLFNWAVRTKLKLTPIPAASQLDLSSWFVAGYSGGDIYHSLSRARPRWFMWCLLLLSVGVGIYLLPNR
Sequence of D(1A) dopamine receptor (Homo sapiens) (P21728 whole entry): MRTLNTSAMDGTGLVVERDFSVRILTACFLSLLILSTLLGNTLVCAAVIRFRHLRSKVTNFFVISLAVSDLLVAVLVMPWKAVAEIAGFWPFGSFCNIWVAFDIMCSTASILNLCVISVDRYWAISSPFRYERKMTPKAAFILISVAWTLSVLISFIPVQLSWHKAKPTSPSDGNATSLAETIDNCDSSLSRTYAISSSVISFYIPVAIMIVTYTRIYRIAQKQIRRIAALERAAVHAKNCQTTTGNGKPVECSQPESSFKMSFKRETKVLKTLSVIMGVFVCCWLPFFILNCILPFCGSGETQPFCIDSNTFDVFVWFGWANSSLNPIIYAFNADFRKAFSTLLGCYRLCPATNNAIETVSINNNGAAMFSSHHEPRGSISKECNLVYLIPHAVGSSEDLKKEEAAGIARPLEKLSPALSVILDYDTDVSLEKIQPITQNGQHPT
Sequence of Delta-type opioid receptor (Homo sapiens) (P41143 whole entry): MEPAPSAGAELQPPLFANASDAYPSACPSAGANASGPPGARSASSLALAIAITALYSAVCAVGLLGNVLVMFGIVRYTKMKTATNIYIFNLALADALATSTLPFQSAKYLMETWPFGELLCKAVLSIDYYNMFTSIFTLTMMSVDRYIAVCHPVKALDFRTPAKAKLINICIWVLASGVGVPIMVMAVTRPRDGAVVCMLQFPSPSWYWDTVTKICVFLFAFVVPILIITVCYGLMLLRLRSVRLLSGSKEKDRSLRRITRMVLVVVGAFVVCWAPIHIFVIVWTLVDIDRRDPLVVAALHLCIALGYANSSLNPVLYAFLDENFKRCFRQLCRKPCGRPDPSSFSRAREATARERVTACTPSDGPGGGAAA
Sequence of Alpha-1A adrenergic receptor (Homo sapiens) (P35348 whole entry): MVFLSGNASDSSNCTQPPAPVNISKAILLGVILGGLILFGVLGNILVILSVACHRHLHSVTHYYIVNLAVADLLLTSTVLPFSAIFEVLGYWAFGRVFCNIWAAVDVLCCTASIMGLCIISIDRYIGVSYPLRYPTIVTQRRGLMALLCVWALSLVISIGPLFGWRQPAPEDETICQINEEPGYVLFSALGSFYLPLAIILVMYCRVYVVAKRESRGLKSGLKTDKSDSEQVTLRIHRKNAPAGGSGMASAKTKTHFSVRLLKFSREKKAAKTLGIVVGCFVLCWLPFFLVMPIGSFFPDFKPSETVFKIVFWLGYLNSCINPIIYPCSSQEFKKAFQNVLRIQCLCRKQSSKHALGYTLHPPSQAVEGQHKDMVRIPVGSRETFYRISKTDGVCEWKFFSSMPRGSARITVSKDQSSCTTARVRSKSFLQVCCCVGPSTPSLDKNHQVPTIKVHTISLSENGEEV
Sequence of Adenosine receptor A2a (Homo sapiens) (P29274 whole entry): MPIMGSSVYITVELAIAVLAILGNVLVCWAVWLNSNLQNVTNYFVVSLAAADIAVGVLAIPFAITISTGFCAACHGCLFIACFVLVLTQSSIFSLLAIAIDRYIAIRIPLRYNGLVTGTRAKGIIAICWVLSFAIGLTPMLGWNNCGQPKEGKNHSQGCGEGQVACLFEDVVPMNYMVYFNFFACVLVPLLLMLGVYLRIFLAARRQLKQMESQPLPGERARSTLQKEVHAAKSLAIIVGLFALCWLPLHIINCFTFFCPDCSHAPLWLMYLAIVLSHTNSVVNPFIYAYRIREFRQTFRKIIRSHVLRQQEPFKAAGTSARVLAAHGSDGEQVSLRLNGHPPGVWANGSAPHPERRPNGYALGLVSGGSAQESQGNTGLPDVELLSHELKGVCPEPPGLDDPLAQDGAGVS
Sequence of Prostaglandin G/H synthase 1 (Homo sapiens) (P23219 whole entry): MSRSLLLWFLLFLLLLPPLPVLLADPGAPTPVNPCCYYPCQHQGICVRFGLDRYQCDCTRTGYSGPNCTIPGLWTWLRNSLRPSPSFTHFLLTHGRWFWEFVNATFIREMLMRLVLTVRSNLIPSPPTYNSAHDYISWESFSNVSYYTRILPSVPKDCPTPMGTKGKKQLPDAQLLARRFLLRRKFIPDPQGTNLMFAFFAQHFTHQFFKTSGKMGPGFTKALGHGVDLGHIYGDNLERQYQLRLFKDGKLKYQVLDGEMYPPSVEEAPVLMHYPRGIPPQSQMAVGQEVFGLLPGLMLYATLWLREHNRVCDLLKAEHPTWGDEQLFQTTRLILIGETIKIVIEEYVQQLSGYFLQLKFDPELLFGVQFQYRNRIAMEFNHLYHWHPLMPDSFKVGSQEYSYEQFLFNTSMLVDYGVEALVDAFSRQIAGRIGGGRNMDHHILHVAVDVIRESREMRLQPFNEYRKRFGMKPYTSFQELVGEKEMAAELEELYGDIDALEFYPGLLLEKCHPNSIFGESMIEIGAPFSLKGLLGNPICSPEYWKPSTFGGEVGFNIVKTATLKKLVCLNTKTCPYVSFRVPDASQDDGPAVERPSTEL
Sequence of Tyrosine-protein kinase Lck (Homo sapiens) (P06239 2-509 limits assumed): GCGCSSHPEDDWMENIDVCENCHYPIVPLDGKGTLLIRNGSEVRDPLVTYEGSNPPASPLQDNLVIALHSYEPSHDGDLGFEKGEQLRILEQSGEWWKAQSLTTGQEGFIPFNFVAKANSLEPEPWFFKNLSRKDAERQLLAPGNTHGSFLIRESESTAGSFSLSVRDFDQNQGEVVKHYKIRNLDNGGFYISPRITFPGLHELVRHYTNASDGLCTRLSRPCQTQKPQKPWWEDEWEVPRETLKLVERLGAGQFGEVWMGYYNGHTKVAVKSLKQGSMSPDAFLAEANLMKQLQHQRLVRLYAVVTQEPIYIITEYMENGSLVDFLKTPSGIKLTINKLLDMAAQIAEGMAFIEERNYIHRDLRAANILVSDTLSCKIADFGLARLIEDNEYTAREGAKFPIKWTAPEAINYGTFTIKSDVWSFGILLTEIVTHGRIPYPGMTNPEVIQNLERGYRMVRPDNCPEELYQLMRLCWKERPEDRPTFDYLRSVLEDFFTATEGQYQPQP
Sequence of cGMP-inhibited 3',5'-cyclic phosphodiesterase 3A (Homo sapiens) (Q14432 whole entry): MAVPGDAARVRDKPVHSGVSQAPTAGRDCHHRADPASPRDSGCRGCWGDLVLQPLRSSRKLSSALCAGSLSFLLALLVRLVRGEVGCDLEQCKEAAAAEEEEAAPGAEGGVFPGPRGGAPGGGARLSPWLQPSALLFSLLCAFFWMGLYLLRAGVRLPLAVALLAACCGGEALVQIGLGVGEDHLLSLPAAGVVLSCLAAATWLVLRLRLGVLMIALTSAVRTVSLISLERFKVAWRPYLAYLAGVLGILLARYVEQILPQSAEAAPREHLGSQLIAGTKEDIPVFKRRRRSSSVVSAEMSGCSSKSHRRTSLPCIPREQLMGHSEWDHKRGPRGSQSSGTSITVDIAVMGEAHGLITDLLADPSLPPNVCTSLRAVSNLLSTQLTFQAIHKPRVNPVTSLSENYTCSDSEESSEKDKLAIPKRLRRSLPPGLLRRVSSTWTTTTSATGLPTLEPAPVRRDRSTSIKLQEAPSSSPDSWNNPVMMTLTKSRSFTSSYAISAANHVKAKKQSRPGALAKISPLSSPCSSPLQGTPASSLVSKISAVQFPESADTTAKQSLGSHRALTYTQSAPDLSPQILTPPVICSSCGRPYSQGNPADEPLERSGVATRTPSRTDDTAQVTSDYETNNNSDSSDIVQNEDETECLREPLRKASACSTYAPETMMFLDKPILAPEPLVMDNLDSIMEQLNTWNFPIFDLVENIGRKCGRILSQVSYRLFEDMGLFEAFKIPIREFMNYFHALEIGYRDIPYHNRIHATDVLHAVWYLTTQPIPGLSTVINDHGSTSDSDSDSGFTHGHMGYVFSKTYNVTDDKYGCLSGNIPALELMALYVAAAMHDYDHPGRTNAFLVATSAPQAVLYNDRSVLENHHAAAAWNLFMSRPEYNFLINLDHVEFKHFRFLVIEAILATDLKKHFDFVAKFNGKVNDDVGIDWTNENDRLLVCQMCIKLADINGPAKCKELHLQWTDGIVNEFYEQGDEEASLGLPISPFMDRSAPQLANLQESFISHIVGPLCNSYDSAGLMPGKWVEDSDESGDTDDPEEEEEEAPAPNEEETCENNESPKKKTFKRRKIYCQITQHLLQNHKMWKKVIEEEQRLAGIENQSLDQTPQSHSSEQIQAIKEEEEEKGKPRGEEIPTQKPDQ
Sequence of 5-hydroxytryptamine receptor 2A (Homo sapiens) (P28223 whole entry): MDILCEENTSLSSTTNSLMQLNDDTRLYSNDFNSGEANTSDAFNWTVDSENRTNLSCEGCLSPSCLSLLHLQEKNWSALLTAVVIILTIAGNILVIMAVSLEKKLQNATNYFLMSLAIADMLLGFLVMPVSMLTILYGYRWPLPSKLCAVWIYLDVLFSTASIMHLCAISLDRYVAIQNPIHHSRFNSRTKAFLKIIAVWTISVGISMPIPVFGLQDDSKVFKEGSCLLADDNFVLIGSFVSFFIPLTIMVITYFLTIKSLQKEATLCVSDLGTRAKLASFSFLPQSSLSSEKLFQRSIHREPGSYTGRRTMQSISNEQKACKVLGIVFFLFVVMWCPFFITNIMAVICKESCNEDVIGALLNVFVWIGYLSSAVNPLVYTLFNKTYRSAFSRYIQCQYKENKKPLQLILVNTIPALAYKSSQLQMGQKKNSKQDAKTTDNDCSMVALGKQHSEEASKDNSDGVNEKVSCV

Work on `Cn1c(C2(NC(=O)c3ccc4c(C5CCCC5)c(-c5ncc(Br)cn5)n(C)c4c3)CCC2)nc2ccc(/C=C/C(=O)O)cc21` [DELEOBUVIR] yielded a residual activity [1] of 100%, a residual activity [2] of 81% and a residual activity [3] of 93%. For the same molecule, the residual activity [4] was 101%, the residual activity [5] was 12% and the activity at 10 µM [6] was 105% (not active). It also gave a residual activity [7] of 66%, a residual activity [8] of 97% and a residual activity [9] of 67%. For the same molecule, the residual activity [10] was 59%, the residual activity [11] was 140% and the residual activity [12] was 76%. The residual activity [13] was 72%, the residual activity [14] was 47% and the residual activity [15] was 148%. The residual activity [16] was 140%, the residual activity [17] was 79% and the residual activity [18] was 105%. The activity at 10 µM [19] was 92% (not active), the residual activity [20] was 104% and the residual activity [21] was 96%. For the same molecule, the residual activity [22] was 81%, the residual activity [23] was 107% and the residual activity [24] was 117%. The residual activity [25] was 73%, the residual activity [26] was 97% and the residual activity [27] was 83%. It also gave a residual activity [28] of 83%, a residual activity [29] of 130% and a residual activity [30] of 100%. It also gave a residual activity [31] of 85%, a residual activity [32] of 107% and a residual activity [33] of 111%. The residual activity [34] was 133%, the residual activity [35] was 67% and the residual activity [36] was 67%. It also gave a residual activity [37] of 116%, a residual activity [38] of 107% and a residual activity [39] of 109%. For the same molecule, the activity at 10 µM (hERG (KCNH2)) was 68% (not active), the residual activity [40] was 86% and the residual activity [41] was 108%. The IC50 [42] was 19 nM (active), the residual activity [43] was 107% and the residual activity [44] was 117%.
In the case of `Cn1c(C2(NC(=O)c3ccc(NCC4CCCCC4)nc3)CCC2)nc2ccc(/C=C/C(=O)O)cc21` [BI 7656], the IC50 [42] is reported as > 5000 nM (not active).
